Assays:
[1] = biological target: T1, β-glucocerebrosidase (GCase) (Homo sapiens, UniProt P04062); assay: Selectivity: glucocerebrosidase activity in fibroblast lysate; type: biochemical; settings: 10 μM, the highest concentration tested
T1 construct: wild-type fibroblast (CRL2076) pellets (˜2.5e6 cells/pellet) were lysed; host or cells: wild-type fibroblasts CRL2076, lysate
T1 sequence (P04062 40-536): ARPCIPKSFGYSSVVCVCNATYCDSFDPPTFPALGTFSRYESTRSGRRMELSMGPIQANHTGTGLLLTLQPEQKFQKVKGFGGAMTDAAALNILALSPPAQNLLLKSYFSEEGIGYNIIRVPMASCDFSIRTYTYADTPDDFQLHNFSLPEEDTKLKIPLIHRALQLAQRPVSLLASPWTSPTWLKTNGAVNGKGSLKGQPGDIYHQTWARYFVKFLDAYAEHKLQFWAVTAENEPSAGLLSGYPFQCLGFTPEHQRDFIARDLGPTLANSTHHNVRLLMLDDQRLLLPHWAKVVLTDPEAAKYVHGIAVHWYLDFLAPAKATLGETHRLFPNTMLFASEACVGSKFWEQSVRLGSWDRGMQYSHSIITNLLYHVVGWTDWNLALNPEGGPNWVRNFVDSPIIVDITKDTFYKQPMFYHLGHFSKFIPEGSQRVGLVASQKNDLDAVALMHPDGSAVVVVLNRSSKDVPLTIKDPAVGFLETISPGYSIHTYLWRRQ
From the text: Enzymatic activity measurements were done in duplicate.

[2] = Single dose pharmacokinetic study (oral gavage), plasma and brain LC-MS/MS; type: in vivo, C57BL/J6 mice
Method: (§1) 5-week-old C57BL/J6 mice (n=5 mice/group, Taconic Farms, Germantown, N.Y.) were administered vehicle (water) or AdDNJ (30, 100 or 300 mg/kg) via oral gavage every day for 14 days. On day 15 mice were euthanized and brain/plasma collected for analysis. For single dose PK studies, 5-week-old C57BL/J6 mice (n=5 mice/group, Taconic Farms, Germantown, N.Y.) received a single 100 mg/kg dose (oral gavage) of AdDNJ and groups euthanized at 0.5, 1, 2, 4, 8, 16, 24 and 48 hours post dose for brain and plasma analysis. Whole brain tissue (10-15 mg) was homogenized in 1 mL of pH 5 lysis buffer for measuring beta-hexosaminidase activity as described above. AdDNJ levels were measured in plasma and brain samples using LC-MS/MS.

[3] = test system: GM1, GM2, and GM3 ganglioside levels; assay: TLC analysis of whole brain ganglioside levels; type: in vivo, Dutch APP^E693Q transgenic mice; settings: 3 months of 100 mg/kg
Method: (§2) The generation and characterization of Dutch APPE693Q mice transgenic mice is described in Gandy, S., et al. Days to criterion as an indicator of toxicity associated with human Alzheimer amyloid-beta oligomers. Annals of neurology 68, 220-230 (2010). 3-month-old male Dutch APP^E693Q mice transgenic mice were orally gavaged 5 days/week with either vehicle (water) (n=15) or 3, 10, 30 or 100 mg/kg AdDNJ for 3 months (n=13). All animal studies were approved and conducted in accordance with the Institutional Animal Care and Usage Committee. Mice were kept in a pathogen-free environment, on a 12-hour light/dark cycle and given ad libitum access to food and water. At 6 month of age treatment groups, and a 3-month-old untreated baseline group (n=15), were cognitively assessed in the NOR, EPM and FC tests. 48 hours following the final dose mice were perfused with ice-cold 1×PBS. The brain was removed and dissected into two hemispheres. One half was snap-frozen on dry ice and stored at −80° C. for biochemistry; the other half was post-fixed in 4% paraformaldehyde then sagittally sectioned on a vibratome into 30 μm sections and stored at 4° C. in storage buffer until histological analyses.

β-hex = test system: β-hex
Method: AdDNJ selectivity was assessed by measuring its effect on the enzymatic activity of hexosaminadase (Total Hex, Hex A/S and Hex B), and 3 other lysosomal hydrolases: alpha-galactosidase, beta-galactosidase and glucocerebrosidase. For enzymatic assays, wild-type fibroblast (CRL2076) pellets (˜2.5e6 cells/pellet) were lysed with 200 μl of pH 5 lysis buffer (Phosphate/citrate, 0.25% tauorocholate, 0.1% TX100). Fibroblast lysates were diluted 1:200 in pH 5 reaction buffer (lysis buffer without TX100) containing 2 mM of the appropriate 4-methylumbelliferyl (4-MU) substrate, incubated for 1 h at 37° C. and stopped with 0.5 M sodium carbonate. Released 4MU was measured using a Perkin Elmer Victor 5× fluorescence plate reader (ex355/em460). Measurement of Total Hex activity was carried out using 4-methylumbelliferyl beta-N-acetylglucosaminide (MUG); for Hex A/S activity 4MU-beta-N-acetylglucosamine-6-sulfate (MUGS); Hex B activity was calculated as the difference between Total Hex and Hex A/S activity; for alpha-galactosidase activity […]; for beta-galactosidase activity 4-MU beta-D-galactoside; for glucocerebrosidase activity 4MU beta-D-glucopyranoside. As positive controls for enzymatic inhibition 100 μM of the following compounds were used: for alpha-galactosidase, 1-deoxygalactonojirimycin; for beta-galactosidase, N-Butyl-1-deoxygalactonojirimycin; for glucocerebrosidase, isofagamine. For beta-hexosaminadase enhancement assays, fibroblasts were exposed to 0, 95, 390 and 780 nM of AdDNJ for 5 days followed by beta-hexosamindase activity measurement. Enzymatic activity measurements were done in duplicate.
as §1

[4] = test system: ganglioside-bound Aβ (GAβ); assay: GAβ immunohistochemistry (clone 4396C); type: in vivo, Dutch APP^E693Q transgenic mice; settings: 100 mg/kg, 3 months
Method: as §2
Aβ was assessed via free-floating immunohistochemistry using mAb 6E10 (1:1000, Covance) as previously described20. GAβ was assessed via free-floating immunohistochemistry using mouse anti-GAβ, clone 4396C (1:100), a gift from Dr. Katsuhiko Yanagisawa as previously described19. Images were captured on an Olympus BX61 upright microscope with an attached Olympus DP71 camera. Integrated density of GAβ staining was measured using Image J (National Institute of Health, Bethesda, Md.).

[5] = daily gavage 14 days at 30, 100 and 300 mg/kg

Question: With CC(=O)NC1CNC(CO)[C@@H](O)C1O (stereo partly drawn) [AdDNJ, 2-acetamido-1,2-dideoxynojirimycin] as the compound, how does the “inhibition of β-glucocerebrosidase (GCase)” value [1] read?
Answer: did not inhibit

Question: What about the bioavailability ([2]; qualitative statement) of the same compound?
Answer: good bioavailability

Question: And the “AdDNJ level reached in brain” value ([2]; single 100 mg/kg dose)?
Answer: > 342 nM

Question: What about the “blood brain barrier penetration” value ([2]; single 100 mg/kg oral gavage) of the same compound?
Answer: crossed the BBB

Question: What about the “time for brain level to drop below Ki for β-hex at pH 5 (253 nM)” value ([2]; single 100 mg/kg oral gavage) of the same compound?
Answer: ≤ 16 hours

Question: What about the “ganglioside levels in whole brain extracts (TLC)” value [3] of the same compound?
Answer: did not reveal any changes in ganglioside levels

Question: And the “time of maximum increase in β-hex levels” value (β-hex; daily gavage 30, 100, 300 mg/kg)?
Answer: ~5 days

Question: And the “GM2 levels in whole brain extracts” value (β-hex; [5])?
Answer: without increasing GM2 levels

Question: And the “brain β-hex levels” value (β-hex; [5])?
Answer: dose-dependent increase

Question: What about the “half-life of elevated β-hex levels in the brain” value (β-hex; data not shown) of the same compound?
Answer: ~48 h

Question: What about the “GAβ immunoreactivity, CA1 region of the hippocampus” value [4] of the same compound?
Answer: did not reach significance

Question: What about the “GAβ immunoreactivity, lateral entorhinal cortex” value [4] of the same compound?
Answer: trend toward reduction

Question: And the “GAβ immunoreactivity, perirhinal cortex” value [4]?
Answer: striking quantitative reduction

Question: What about the “GAβ immunoreactivity, subiculum” value [4] of the same compound?
Answer: striking quantitative reduction

Question: What about the “GAβ immunoreactivity, visual cortex” value [4] of the same compound?
Answer: did not reach significance

From patent publication US9675627B2, “Dosing regimens for treating and/or preventing cerebral amyloidoses” (Amicus Therapeutics, Inc., priority 2014, dated 2017)
